Source: patent US9433663B2, “Mobilization of hematopoietic stem cells” (Children's Hospital Medical Center, priority 2008, dated 2016)

How the values were obtained:
[1] = tested on: HSCs (IL7Ra^−Lin^−Sca-1^+c-Kit^+) in the BM; experiment: six-color FACS of BM HSPC compartments after treatment; type: in vivo; settings: after CASIN injection, C57Bl/6 mice
Protocol: Whether CASIN administration can induce mobilization of HSC/Ps to peripheral blood of C57Bl/6 mice, mimicking the phenotype observed in Cdc42 conditional knockout mice, was evaluated. First of all, mobilization of hematopoietic progenitor cells was examined by CFU-C assays functionally (FIG. 3a). […] Secondarily, to further explore the ability of CASIN to mobilize LT-HSC which is crucial for long-term repopulation of the mobilized cells, serial transplantations were carried out, where 20 million PB from CASIN-mobilized C57Bl/6 mice was transplanted into primary recipient of NOD/SCID mice, and subsequent secondary and tertiary transplants were finished as well using prior BMs (FIG. 3c). Donor chimerisms were assessed by using H2K^b congenic marker which is positive for donors of C57Bl/6 strain and negative for recipients of NOD/SCID strain. […] Therefore, the studies show CASIN can efficiently mobilize colony-forming hematopoietic progenitors and LT-HSCs with self-renewal and multi-lineage differentiation capacity. […]
To immunophenotypically profile the multi-compartments of HSPCs in BM, FACS analysis of six-color staining was carried out as previously. […] The sub-compartments of HSC, LT-HSC, ST-HSC, and CLP were quantified accordingly.

[2] = tested on: C57Bl/6, C3H/HeJ and DBA/2 mice; experiment: Example 7 HPC mobilization in comparison and combination with G-CSF; settings: mouse, in vivo
Protocol: Broad interindividual variability exists in mobilization of HSC/Ps in different strains of mice and man. In some patients, G-CSF is a poor mobilizer. Therefore, the mobilizing capability of CASIN in comparison with G-CSF is evaluated, and in combination with G-CSF, in strains of mice that were reported to differ in responsiveness to G-CSF. Besides C57Bl/6, included in this set of experiments are C3H/HeJ and DBA/2 mice which respond very well to the mobilizing effects of G-CSF compared with C57Bl/6 mice. For each strain of mice, four groups are divided according to regimens used for mobilization: (1) Control medium; (2) CASIN administration; (3)G-CSF: twice a day for 2 days (4) G-CSF plus CASIN administration. Mice are bled 18 h after the last injection, and blood is plated in triplicate for CFU-C assay. Numbers of HPCs in CFU-E, BFU-E, CFU-GM, and CFU-GEMM are calculated per ml of blood later on reflecting the mobilization capacity of different regimens on HPCs.

[3] = tested on: human CD34^+ umbilical cord blood cells; experiment: flow cytometry of F-actin polymerization in human CD34+ HCB cells; type: cell-based; settings: human CD34^+ HCBs, SDF-1α induced
Protocol: FIG. 4A. SDF-1α induced F-actin polymerization over time without or with gradient CASIN treatment, determined by MFI using FACS analysis.
(§1) To begin to study potential utility of CASIN in human hematopoietic stem cell mobilization, a series of cellular assays were carried out to determine the effects on human CD34^+ umbilical cord blood cells (HCBs). […] The effects of CASIN on human hematopoietic cell mobilization was therefore tested using a well established preclinical in vivo model (NOD/SCID-Hcb) of human hematopoietic function, where fresh CD34^+ hCB cells were transplanted into sub-lethally irradiated NOD/SCIDs by intrafemoral injection, and repopulated and maintained human hematopoietic reconstitution in the bone marrow of NOD/SCID recipient mice (FIG. 9b, FIG. 11) (Larochelle, A. et al. Nat Med 2, 1329-1337 (1996); Bhatia, M., et al. Proc Natl Acad Sci USA 94, 5320-5325 (1997)). Intravenous injections of CASIN were applied when human cells were well engrafted in the NOD/SCID recipients.

[4] = tested on: human CD34^+ umbilical cord blood cells; experiment: adhesion of human CD34+ HCB cells; type: cell-based; settings: 5 μM
Protocol: FIG. 4B. Relative adhesion of CD34^+ HCB cells in the presence of CASIN at dose of 5 μM in comparison to that of control.
as §1

murine HSCs = experiment: Example 7 competitive repopulating assay of mobilized HSCs; type: in vivo, mice; settings: competitive repopulating experiments, CASIN-mobilized C57Bl/6 donors
Description: Although mobilization of HPC may be of use for short-term repopulation in a transplant setting, HSCs are required for long-term repopulation. To assess mobilization effect of CASIN on murine HSCs, a competitive repopulating assay is used. Basically, donor cells are harvested from peripheral blood of C57Bl/6 mice (CD45.2) after mobilization with CASIN or control medium. BM cells from nonirradiated B6.BoyJ (CD45.1) mice are served as competitor cells. Dilutions of donor blood cells from mobilized C57Bl/6 mice that contain long-term repopulating (LTR) cells compete with marrow cells of recipient B6.BoyJ mice at ratio of 3:1, 2:1, and 1:1 for engraftment in lethally-irradiated recipients. Donor chimerism is assessed using CD45 congenic markers by flow cytometry at 1, 2, 3, and 4 months posttransplantation. […] Donor chimerism again is assessed in the secondary mice based on the CD45 congenic markers.
The mobilization effect of CASIN on HSCs in comparison or combination with G-CSF is assessed under the following four mobilization groups: (1) Control medium mobilization group; (2) CASIN mobilization group; (3) G-CSF mobilization group (G-CSF: twice a day for 2 days); (4) CASIN plus G-CSF (twice a day for 2 days) mobilization group. […] The mobilization effects under different groups are analyzed based on the chimerism of donor-derived cells.

For `OCCNC1CCCc2c1[nH]c1ccc(-c3ccccc3)cc21` (centres unmarked) [CASIN], the “number of genotypic HSCs (IL7Ra^−Lin^−Sca-1^+c-Kit^+) in the BM” value [1] was “decreased significantly”, the “mobilization in comparison and in combination with G-CSF” value [2] was “more effective mobilization than G-CSF” and the F-actin polymerization [3] was “inhibited F-actin polymerization of these human progenitors dose-dependently”. The “adhesion activity of human progenitors” value [4] was “significantly dampened” and the “engraftment of donor derived cells in recipient B6.BoyJ mice” value (murine HSCs) was “significant engraftment of donor derived cells in a dilution-dependent pattern”.
